How the values were obtained:
[1] = tested on: splenocytes stimulated with the vaccine peptide pool; test: Antigen-specific IFN-γ ELISPOT of splenocytes, ApcMin/+ mice; format: in vivo; conditions: any regimen of naproxen, adjuvant only
Excerpt: (§1) Analysis of peptide-specific T-cell responses. […] Data are reported as pg/ml.

Granzyme B = Granzyme B ELISA of ELISPOT supernatant, ApcMin/+ mice; format: in vivo
Excerpt: as §1

[2] = tested on: tumors from Apc^Min/+ mice; test: Immunohistochemistry of tumors (CD8, PD-L1), ApcMin/+ mice; format: in vivo; conditions: naproxen intermittently or continuously, p<0.001
Experimental: Immunohistochemistry. Tumors removed from the intestine were covered with Tissue-Tek O.C.T Compound in a cryomold and stored at −80° C. Frozen blocks were sectioned and fixed with 75% acetone/25% methanol for 5 minutes. The slides were washed thrice with PBS and 10% goat serum was added for 1 hour at room temperature followed by an anti-mouse PD-L1 (abcam; clone: MIH6; 1/100 dilution) or anti-mouse CD8 (AbD Serotec; clone KT15; 1/200 dilution) overnight at 4° C. After washing, the slides were incubated with AlexaFluor 488 anti-rat IgG (abcam; 1:1000 dilution) for 1 hour at room temperature. Positive cells were counted in three 20× microscopic fields and expressed as the mean percent of total cells.

[3] = tested on: tumor infiltrating lymphocytes; test: Immunophenotyping of tumor infiltrating lymphocytes, ApcMin/+ mice; format: in vivo; conditions: APC^Min/+
Experimental: (§2) Immunophenotyping. After removing up to 10 polyps in ApcMin/+, and 1-2 polyps in AOM treated mice, remaining tumors were removed from the intestinal tissue with forceps and applied to a 70 μm filter, washed through with flow cytometry buffer (PBS/1% FBS/2 mM EDTA) and red cells lysed. […] Prior to surface staining, cells were stained with Fixable viability dye 450 (eBiosciences; 1:1000) in PBS and then washed in flow cytometry buffer. Intracellular staining was performed using the FOXP3 buffer set (Thermo Fisher Scientific). Antibodies were obtained from BD Bioscience, Biolegend or Thermo Fisher Scientific. […] Analysis was performed on FACS Canto RUO and data analyzed using FlowJo software (BD Biosciences). […] Results are reported as a percentage of total cell number or a percentage of a specific cell population.

[4] = tested on: tumor infiltrating lymphocytes; test: Immunophenotyping of tumor infiltrating lymphocytes, AOM-treated mice; format: in vivo
Experimental: as §2

human PBMC = test: Th ratio from IFN-γ and IL-10 ELISPOT, human PBMC screening; format: cell-based
Experimental: Vaccine. The vaccine consisted of the Th1-selective epitopes CDC25B-p132-156, COX2-p76-93, COX2-p276-295, EGFR-p880-895, and p962-976. The Th selective epitopes were determined in human PBMC screening by calculating the ratio of the product of the mean magnitude and percent incidence of response for IFN-γ and IL-10 ELISPOT assays (IFN-γ incidence X magnitude/IL-10 incidence X magnitude). Ratios greater than 7 defined Th1-selective epitopes (See Table 4).

## COc1ccc2cc([C@H](C)C(=O)O)ccc2c1 [naproxen]
[1]
  antigen-specific IFN-γ: did not result in increased
Granzyme B
  Granzyme B levels, in words: did not result in increased
[2]
  tumor cell expression of PD-L1: reduced
  tumor infiltrating CD8+ T-cells: increased
[3]; CON naproxen
  % CD4 of CD3+: 30%
  % CD8 of CD3+: 35%
  % CM of CD4+: 14%
  % CM of CD8+: 4%
  % EM of CD4+: 60%
  % EM of CD8+: 48%
  % Foxp3 of CD4: 4%
  % GATA3 of CD4+: 5%
  % MDSC: 1%
  % PD1 of CD4+: 3%
  % PD1 of CD8+: 7%
  % Tbet of CD3: 9%
[3]; INT naproxen
  % CD4 of CD3+: 14%
  % CD8 of CD3+: 15%
  % CM of CD4+: 18%
  % CM of CD8+: 2%
  % EM of CD4+: 41%
  % EM of CD8+: 44%
  % Foxp3 of CD4: 2%
  % GATA3 of CD4+: 4%
  % MDSC: 4%
  % PD1 of CD4+: 5%
  % PD1 of CD8+: 7%
  % Tbet of CD3: 11%
[4]; CON naproxen
  % CD4 of CD3+: 61%
  % CD8 of CD3+: 12%
  % CM of CD4+: 6%
  % CM of CD8+: 8%
  % EM of CD4+: 43%
  % EM of CD8+: 52%
  % Foxp3 of CD4: 5%
  % GATA3 of CD4+: 2%
  % MDSC: 6%
  % PD1 of CD4+: 3%
  % PD1 of CD8+: 4%
  % Tbet of CD3: 10%
[4]; INT naproxen
  % CD4 of CD3+: 66%
  % CD8 of CD3+: 11%
  % CM of CD4+: 6%
  % CM of CD8+: 6%
  % EM of CD4+: 48%
  % EM of CD8+: 53%
  % Foxp3 of CD4: 5%
  % GATA3 of CD4+: 3%
  % MDSC: 6%
  % PD1 of CD4+: 4%
  % PD1 of CD8+: 4%
  % Tbet of CD3: 9%

## CDC25b-p132-156: peptide IQAASRIIRNEQFAIRRFQSMPVRL (SEQ ID NO: 1)
Human PBMC
  Th ratio (IFN-γ incidence X magnitude/IL-10 incidence X magnitude): 186

## COX2-p276-295: peptide EVFGLVPGLMMYATIWLREH (SEQ ID NO: 3)
Human PBMC
  Th ratio (IFN-γ incidence X magnitude/IL-10 incidence X magnitude): 17

## COX-2-p76-93: peptide YILTHFKGFWNVVNNIPF (SEQ ID NO: 2)
Human PBMC
  Th ratio (IFN-γ incidence X magnitude/IL-10 incidence X magnitude): 7

Source: US20260263576A1, “DNA VACCINE TARGETING OVEREXPRESSED ANTIGENS IN COLORECTAL CANCER” (UNIVERSITY OF WASHINGTON, priority 2023, published 2026)
